The text below walks through data of patent US5789377A (priority 1995, dated 1998).

Read-outs that look alike come from different tables or passages of the source.

Holding throughout (format): cell-based
One series relates to E. coli. The protocol:
(§1) The minimum inhibitory concentrations (MIC) of CEME, CEMA and melittin were determined for a number of different bacteria (Table 2). Briefly, cells were grown overnight at 37° C. in LB-S (Luria broth without any salt supplement) and diluted one in 10,000 in the same medium to give concentrations of about 10^4 to 10^5 CFU/ml. The broth dilutions were set up in a 96 well microtiter plate by putting 200 μl of LB-S containing the initial concentration of antibiotic or compound in column 1 and 100 μl of the same medium in columns 2-12. The compounds were diluted by taking 100 μl of broth from column 1 and mixing it with column 2, resulting in a one in two dilution. This was continued to column 10. Finally, 10 μl of bacteria were pipetted into columns 1-11, and the plates incubated overnight at 37° C. The next day the plates were scored for growth in the wells, and the MIC determined.

The subject of the next series is S. typhimurium. The method, then:
as §1

The subject of another series is E. cloacae. The conditions noted are these: strain 218R1, β-lactam resistant. The method, then: as §1
The next series relates to E. cloacae 218R1. In words: 1-N-phenylnaphthylamine (NPN) uptake assay. The conditions noted are these: 10 μM NPN, fluorescence, FIG. 8. The text has this: (§2) The second assay determined membrane permeability by the ability of 1-N-phenylnaphthylamine (NPN), a small fluorescent probe, to insert itself into the membrane. Normally, very little NPN can penetrate the outer membrane, but in the presence of a membrane permeabilizer it can insert into the hydrophobic membrane resulting in an increase in fluorescence (FIGS. 7 and 8). This N-phenylnaphthylamine uptake assay was previously described by Loh, et al., Antimicrobial Agents and Chemo., 26:546, 1984. Cells were prepared exactly the same as for the lysozyme lysis assay. 1-N-phenylnaphthylamine (NPN) was dissolved in acetone at a concentration of 500 μM. NPN fluorescence was measured in a Perkin-Elmer 650-10S fluorescent spectrophotometer using excitation and emission wavelengths set to 350 nm and 420 nm respectively, with slit widths of 5 nm. The assay was standardized by adding 20 μl of NPN (final concentration of 10 μM) and 10 μl of 0.64 mg/ml of polymyxin B (final concentration of 6.4 μg/ml) into 1 ml of cells, and adjusting the resulting fluorescence to read 90% deflection (90 arbitrary units). Various compounds were tested by adding 10 μl of different concentrations to a cuvette containing 1 ml of cells and 10 μM NPN. Permeabilizing activity was designated as the total fluorescence minus the fluorescence due to NPN alone. Following the fluorescence measurement, the OD600 of the cells was taken to ensure no significant cell lysis had occurred.

Series [1] relates to P. AERUGINOSA H309. In words: 1-N-phenylnaphthylamine (NPN) uptake assay. The conditions noted are these: 10 μM NPN, fluorescence, FIG. 7.
From the text: as §2

The next series deals with RAW cells. Description: RAW cell viability by Trypan blue exclusion. The conditions noted are these: up to 50 μg peptide.
The next series concerns Candida albicans. Description: MIC broth dilution. The following applies: fragments of CEMA. The method, then:
as §1
Consequently, although CEMA is an effective antimicrobial agent, the individual fragments have no antimicrobial (or anti-fungal) activity.
(In broth dilution the organism is exposed to a series of concentrations in liquid medium.)

A further series has as its system S. aureus. The conditions noted are these: fragments of CEMA. The method, then:
as §1

The test system of another series is P. aeruginosa. The conditions noted are these: fragments of CEMA. The protocol: as §1
The next series relates to E. coli strain DC2. In words: gel overlay antibacterial activity assay. The following applies: gel overlaid with ≈10^5 E. coli strain DC2, overnight at 37° C. The protocol:
A sample of the partially purified CEME protein was electrophoresed on a 15% acid-urea gel, which separates proteins based on charge and mass (Panyim and Chalkey, Arch. Biochem. Biophys., 130:337, 1969). The pH of the buffer is acidic (=pH 5.0) and the polarity is reversed such that proteins migrate to the cathode. Therefore, the small cationic peptides run relatively quickly through the gel and thus can be easily identified. Antibacterial activity was tested as previously described (Hultmark, Eur. J. Biochem., 106:7, 1980). The gel was incubated in Mueller Hinton broth+0.2M NaPO4 pH 7.4 for 1 hr. It was overlaid with 5 mls of the same media containing 0.6% agar and ≈10^5 E. coli strain DC2, and then again with 5 ml of the same media containing only 0.6% agar. […] Melittin is used as a positive control due to its antibacterial activity and similarity in size and PI values.

The test system of series [2] is P. AERUGINOSA H309. In words: lysozyme lysis assay (membrane permeabilization). The conditions noted are these: 50 μg/ml lysozyme, decrease in OD600, FIG. 5. The method, then: Membrane permeabilization by polycationic compounds was measured in two different assays. The first assay measured membrane disruption by the ability of lysozyme to reach the periplasm and cause cell lysis. […] The uptake of lysozyme into whole cells due to membrane permeabilization by various compounds was previously described in Hancock, et al., Antimicrobial Agents and Chemo., 19:777, 1981. Overnight cultures of P. aeruginosa H309 or E. cloacae 218R1 grown in LB-S were diluted 1 in 50 in fresh medium and grown to an OD600 =0.5-0.6. The cells were harvested in a Silencer H-103N clinical centrifuge at 1800 g for 10 min, washed once with one volume of assay buffer (5 mM HEPES pH 7.2, 5 mM KCN), and resuspended in the same buffer to an OD600 of 0.5. Assays consisted of 600 μl of cells with 50 μg/ml of chicken egg white lysozyme and varying concentrations of cationic compounds. Cell lysis was measured as a decrease in the OD600 in a Perkin-Elmer dual beam spectrophotometer. Parallel experiments performed without lysozyme enabled the measurement of the lytic activity of the compounds themselves. To test whether or not permeability to lysozyme could be inhibited by divalent cations, various concentrations of MgCl2 were added to the assay after the addition of lysozyme and before the addition of the test compound.

Setting [3] is: strain DC2, Polymyxin sensitive.
Setting [4] is: strain SC9251, Parent of SC9252.
[5] abbreviates: strain SC9252, Polymyxin resistant.
Where [6] appears, read: strain C590, Defensin sensitive.

As to polymyxin B [PX], the minimum inhibitory concentration (MIC) – broadly, the smallest concentration in the dilution series that meets the test's criterion for growth inhibition – in the series with E. coli (setting [3]) was determined as 0.06 mg/L; in the series with E. coli (setting [4]), 0.06 mg/L; against E. coli (setting [5]), 4 mg/L; with S. typhimurium (strain C587, Parent of C590) it was 1 mg/L; against S. typhimurium (setting [6]), 0.25 mg/L; in the series on E. cloacae, 0.5 mg/L. Besides, the “opening up the membrane to NPN” value in the series on E. cloacae 218R1 and in the series on P. AERUGINOSA H309 [1] was “equally active” each time.

As for gentamicin [GM], the MIC against E. coli (setting [3]) was 0.5 mg/L; with E. coli (setting [4]), 2 mg/L; in the series with E. coli (setting [5]), 4 mg/L; with S. typhimurium (strain C587, Parent of C590) it was 4 mg/L; against S. typhimurium (setting [6]) it was 2 mg/L; with E. cloacae it was 0.5 mg/L.

On to `CC[C@H](C)[C@H](NC(=O)CNC(=O)[C@@H](NC(=O)[C@H](CCCCN)NC(=O)[C@H](CCCCN)NC(=O)[C@H](Cc1ccccc1)NC(=O)[C@H](CC(C)C)NC(=O)[C@H](CCCCN)NC(=O)[C@H](Cc1c[nH]c2ccccc12)NC(=O)[C@@H](N)CCCCN)[C@@H](C)CC)C(=O)NCC(=O)N[C@@H](C)C(=O)N[C@H](C(=O)N[C@@H](CC(C)C)C(=O)N[C@@H](CCCCN)C(=O)N[C@H](C(=O)N[C@@H](CC(C)C)C(=O)N[C@H](C(=O)N[C@H](C(=O)NCC(=O)N[C@@H](CC(C)C)C(=O)N1CCC[C@H]1C(=O)N[C@@H](C)C(=O)N[C@@H](CC(C)C)C(=O)N[C@@H](CCCCN)C(=O)N[C@@H](CC(C)C)C(=O)N[C@H](C(=O)N[C@@H](CCCCN)C(=O)O)[C@@H](C)O)[C@@H](C)O)[C@@H](C)O)C(C)C)C(C)C` [CEMA], for which the RAW cell viability entry in the series on RAW cells is “no apparent decrease”.

On to `CC[C@H](C)[C@H](NC(=O)CN)C(=O)NCC(=O)N[C@@H](C)C(=O)N[C@H](C(=O)N[C@@H](CC(C)C)C(=O)N[C@@H](CCCCN)C(=O)N[C@H](C(=O)N[C@@H](CC(C)C)C(=O)N[C@H](C(=O)N[C@H](C(=O)NCC(=O)N[C@@H](CC(C)C)C(=O)N1CCC[C@H]1C(=O)N[C@@H](C)C(=O)N[C@@H](CC(C)C)C(=O)N[C@@H](CCCCN)C(=O)N[C@@H](CC(C)C)C(=O)N[C@H](C(=O)N[C@@H](CCCCN)C(=O)O)[C@@H](C)O)[C@@H](C)O)[C@@H](C)O)C(C)C)C(C)C` [MA], for which the MIC result is listed as “greater than 64 ug/ml” in the series on Candida albicans; “greater than 64 ug/ml” against E. coli (E. coli, fragments of CEMA); “greater than 64 ug/ml” against S. aureus; “greater than 64 ug/ml” in the series with P. aeruginosa.

`CC[C@H](C)[C@H](NC(=O)CN)C(=O)NCC(=O)N[C@@H](C)C(=O)N[C@H](C(=O)N[C@@H](CC(C)C)C(=O)N[C@@H](CCCCN)C(=O)N[C@H](C(=O)N[C@@H](CC(C)C)C(=O)N[C@H](C(=O)N[C@H](C(=O)NCC(=O)N[C@@H](CC(C)C)C(=O)N1CCC[C@H]1C(=O)N[C@@H](C)C(=O)N[C@@H](CC(C)C)C(=O)N[C@H](C(=O)N[C@@H](CO)C(=O)N[C@@H](Cc1c[nH]c2ccccc12)C(=O)N[C@H](C(=O)N[C@@H](CCCCN)C(=O)N[C@@H](CCCNC(=N)N)C(=O)N[C@@H](CCCCN)C(=O)N[C@@H](CCCNC(=N)N)C(=O)N[C@@H](CCC(N)=O)C(=O)N[C@@H](CCC(N)=O)C(N)=O)[C@@H](C)CC)[C@@H](C)CC)[C@@H](C)O)[C@@H](C)O)C(C)C)C(C)C` [MEL, melittin]: the “zones of clearing on overlaid acid-urea gel” value with E. coli strain DC2 is “zones of clearing”. Also, the “permeabilization of outer membrane to lysozyme” value in the series on P. AERUGINOSA H309 [2] is “did not appear to be a good permeabilizer as compared to the other peptides”. Besides, the “opening up the membrane to NPN” value with P. AERUGINOSA H309 [1] is “less active”.
